According to PubChem BioAssay AID488868 (Broad Institute, 2010):
Calls of active or inactive are those of the source.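 How the source made its calls: active means compounds lowering nitrite signal whose fitted AC50 is at most ten times their top tested dose; inconclusive means flat drop of 30 to 70 percent, or poor curve fit; inactive means the rest.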

System: not listed separately
Experiment: suppression of NO production in INS-1E cells – cell-based, Griess absorbance, dry powder, set 2, dose response (AID 488868)
Conditions: INS-1E cytokine-induced nitrite, Griess absorbance, 48 h; at 12 µM (top of the series)
With `C[C@@H]1CN([C@@H](C)CO)C(=O)c2cccc(NC(=O)Nc3cccc4ccccc34)c2O[C@H]1CN(C)S(=O)(=O)c1ccc2c(n1)N(C)CCO2` the activity change, negative = inhibition was 1.75% (inactive).
For `C[C@@H]1CN([C@H](C)CO)C(=O)c2cccc(NC(=O)Nc3ccc(F)cc3)c2O[C@H]1CN(C)S(=O)(=O)c1ccc(Cl)cc1`, the activity change, negative = inhibition was 1.53% (inactive).
For `C[C@@H]1CN([C@@H](C)CO)C(=O)c2cccc(NC(=O)Nc3cccc4ccccc34)c2O[C@H]1CN(C)C(=O)Nc1ccccc1`, the activity change, negative = inhibition was 11.5% (inactive).
In the case of `Cc1ccc(S(=O)(=O)N(C)C[C@@H]2Oc3c(NC(=O)Nc4ccc(F)cc4)cccc3C(=O)N([C@H](C)CO)C[C@H]2C)cc1`, the activity change, negative = inhibition is reported as -0.835% (inactive).

Same assay, conditions: INS-1E cytokine-induced nitrite, Griess absorbance, 48 h; at 23.5 µM (top of the series)
In the case of `COc1ccc(S(=O)(=O)N(C)C[C@@H]2Oc3c(NS(=O)(=O)c4ccc(C)cc4)cccc3C(=O)N([C@@H](C)CO)C[C@H]2C)cc1`, the activity change, negative = inhibition is reported as -10.1% (inactive).
For `COc1ccc(S(=O)(=O)N(C)C[C@@H]2Oc3c(NC(=O)C4CC4)cccc3C(=O)N([C@@H](C)CO)C[C@H]2C)cc1`, the activity change, negative = inhibition was 1.94% (inactive).
In the case of `COc1ccc(S(=O)(=O)N(C)C[C@@H]2Oc3c(NC(=O)Nc4ccc(F)cc4)cccc3C(=O)N([C@@H](C)CO)C[C@H]2C)cc1`, the activity change, negative = inhibition is reported as -9.52% (inactive).
For `COc1ccc(S(=O)(=O)N(C)C[C@@H]2Oc3c(NC(=O)C4CCOCC4)cccc3C(=O)N([C@@H](C)CO)C[C@H]2C)cc1`, the activity change, negative = inhibition was 3.17% (inactive).
In the case of `COc1ccc(S(=O)(=O)N(C)C[C@@H]2Oc3c(cccc3N(C)C)C(=O)N([C@@H](C)CO)C[C@H]2C)cc1`, the activity change, negative = inhibition is reported as -2.44% (inactive).

Same assay, conditions: INS-1E cytokine-induced nitrite, Griess absorbance, 48 h; at 26 µM (top of the series)
For `Cc1ccc(S(=O)(=O)N(C)C[C@@H]2Oc3c(NC(=O)Nc4ccccc4)cccc3C(=O)N([C@@H](C)CO)C[C@H]2C)cc1`, the activity change, negative = inhibition was -12.1% (inactive).
For `COc1ccc(S(=O)(=O)N(C)C[C@@H]2Oc3c(NS(=O)(=O)c4ccc(Cl)cc4)cccc3C(=O)N([C@@H](C)CO)C[C@H]2C)cc1`, the activity change, negative = inhibition was 4.24% (inactive).
With `COc1ccc(S(=O)(=O)N(C)C[C@@H]2Oc3c(NC(=O)c4cnccn4)cccc3C(=O)N([C@@H](C)CO)C[C@H]2C)cc1` the activity change, negative = inhibition was 5.1% (inactive).
In the case of `COc1ccc(NC(=O)Nc2cccc3c2O[C@@H](CN(C)S(=O)(=O)c2ccc(OC)cc2)[C@H](C)CN([C@@H](C)CO)C3=O)cc1`, the activity change, negative = inhibition is reported as -7.77% (inactive).
For `C[C@@H]1CN([C@@H](C)CO)C(=O)c2cccc(NC(=O)Nc3cccc4ccccc34)c2O[C@H]1CN(C)S(=O)(=O)c1ccc2c(c1)OCCCO2`, the activity change, negative = inhibition was -19.2% (inactive).
In the case of `COc1ccc(S(=O)(=O)N(C)C[C@@H]2Oc3c(NC(=O)Nc4ccc5c(c4)OCO5)cccc3C(=O)N([C@@H](C)CO)C[C@H]2C)cc1`, the activity change, negative = inhibition is reported as -14.3% (inactive).
With `COc1ccc(S(=O)(=O)N(C)C[C@@H]2Oc3c(NC(=O)Nc4ccc(C(F)(F)F)cc4)cccc3C(=O)N([C@@H](C)CO)C[C@H]2C)cc1` the activity change, negative = inhibition was -12% (inactive).
For `COc1ccc(S(=O)(=O)N(C)C[C@@H]2Oc3c(NS(=O)(=O)c4ccc(F)cc4)cccc3C(=O)N([C@@H](C)CO)C[C@H]2C)cc1`, the activity change, negative = inhibition was -1.11% (inactive).
In the case of `Cc1ccc(S(=O)(=O)N(C)C[C@@H]2Oc3c(NC(=O)Nc4ccccc4)cccc3C(=O)N([C@H](C)CO)C[C@H]2C)cc1`, the activity change, negative = inhibition is reported as -21% (inactive).
With `COc1ccc(S(=O)(=O)N(C)C[C@@H]2Oc3c(NC(=O)c4ccc(-c5nccs5)cc4)cccc3C(=O)N([C@@H](C)CO)C[C@H]2C)cc1` the activity change, negative = inhibition was -0.0778% (inactive).
With `C[C@@H]1CN([C@@H](C)CO)C(=O)c2cccc(NC(=O)Nc3cccc4ccccc34)c2O[C@H]1CN(C)S(=O)(=O)c1ccc2ncsc2c1` the activity change, negative = inhibition was -14.4% (inactive).
For `C[C@@H]1CN([C@@H](C)CO)C(=O)c2cccc(NC(=O)Nc3cccc4ccccc34)c2O[C@H]1CN(C)S(C)(=O)=O`, the activity change, negative = inhibition was 0.629% (inactive).
In the case of `COc1ccc(S(=O)(=O)N(C)C[C@H]2Oc3c(NC(=O)Nc4cccc5ccccc45)cccc3C(=O)N([C@H](C)CO)C[C@H]2C)cc1`, the activity change, negative = inhibition is reported as 0.786% (inactive).
In the case of `COc1ccc(S(=O)(=O)N(C)C[C@H]2Oc3c(NC(=O)Nc4cccc5ccccc45)cccc3C(=O)N([C@H](C)CO)C[C@@H]2C)cc1`, the activity change, negative = inhibition is reported as -26.2% (inactive).
With `COc1ccc(S(=O)(=O)N(C)C[C@@H]2Oc3c(NS(=O)(=O)c4cn(C)cn4)cccc3C(=O)N([C@@H](C)CO)C[C@H]2C)cc1` the activity change, negative = inhibition was 4.39% (inactive).
With `COc1ccc(S(=O)(=O)N(C)C[C@@H]2Oc3c(NC(=O)c4cc(C)nn4C)cccc3C(=O)N([C@@H](C)CO)C[C@H]2C)cc1` the activity change, negative = inhibition was -1.39% (inactive).
For `COc1ccc(S(=O)(=O)N(C)C[C@@H]2Oc3c(NC(=O)C4CCCCC4)cccc3C(=O)N([C@@H](C)CO)C[C@H]2C)cc1`, the activity change, negative = inhibition was 1.58% (inactive).
In the case of `C[C@@H]1CN([C@H](C)CO)C(=O)c2cccc(NC(=O)Nc3ccccc3)c2O[C@H]1CN(C)S(=O)(=O)c1ccc(F)cc1`, the activity change, negative = inhibition is reported as -13.8% (inactive).
In the case of `C[C@H]1CN([C@@H](C)CO)C(=O)c2cccc(NC(=O)NC3CCCCC3)c2O[C@@H]1CN(C)S(C)(=O)=O`, the activity change, negative = inhibition is reported as -3.58% (inactive).
For `COc1ccc(S(=O)(=O)N(C)C[C@@H]2Oc3c(NC(=O)Nc4cccc5ccccc45)cccc3C(=O)N([C@@H](C)CO)C[C@H]2C)cc1OC`, the activity change, negative = inhibition was 2.18% (inactive).
With `COc1ccc(S(=O)(=O)N(C)C[C@@H]2Oc3c(NC(=O)Nc4cccc5ccccc45)cccc3C(=O)N([C@H](C)CO)C[C@@H]2C)cc1` the activity change, negative = inhibition was -1.65% (inactive).
In the case of `COc1ccc(S(=O)(=O)N(C)C[C@@H]2Oc3c(NC(=O)c4ccncc4)cccc3C(=O)N([C@@H](C)CO)C[C@H]2C)cc1`, the activity change, negative = inhibition is reported as 10% (inactive).
For `COc1ccc(S(=O)(=O)N(C)C[C@@H]2Oc3c(NC(=O)Nc4ccccc4)cccc3C(=O)N([C@@H](C)CO)C[C@H]2C)cc1`, the activity change, negative = inhibition was -14.9% (inactive).
In the case of `COc1ccc(S(=O)(=O)Nc2cccc3c2O[C@@H](CN(C)S(=O)(=O)c2ccc(OC)cc2)[C@H](C)CN([C@@H](C)CO)C3=O)cc1`, the activity change, negative = inhibition is reported as -6.55% (inactive).
In the case of `COc1ccc(S(=O)(=O)N(C)C[C@@H]2Oc3c(NC(=O)Nc4cccc5ccccc45)cccc3C(=O)N(C(C)C)C[C@H]2C)cc1`, the activity change, negative = inhibition is reported as 12.7% (inactive).
With `C[C@@H]1CN([C@@H](C)CO)C(=O)c2cccc(NC(=O)Nc3ccc(F)cc3)c2O[C@H]1CN(C)S(=O)(=O)c1ccc(F)cc1` the activity change, negative = inhibition was -1.84% (inactive).
In the case of `COc1ccc(S(=O)(=O)N(C)C[C@@H]2Oc3c(NS(=O)(=O)c4ccccc4)cccc3C(=O)N([C@@H](C)CO)C[C@H]2C)cc1`, the activity change, negative = inhibition is reported as 0.0255% (inactive).
With `C[C@@H]1CN([C@@H](C)CO)C(=O)c2cccc(NC(=O)Nc3ccccc3)c2O[C@H]1CN(C)S(=O)(=O)c1ccc(F)cc1` the activity change, negative = inhibition was -5.13% (inactive).
In the case of `COc1ccc(S(=O)(=O)N(C)C[C@@H]2Oc3c(NC(=O)NC(C)C)cccc3C(=O)N([C@@H](C)CO)C[C@H]2C)cc1`, the activity change, negative = inhibition is reported as 6.79% (inactive).
In the case of `COc1ccc(S(=O)(=O)N(C)C[C@H]2Oc3c(NC(=O)Nc4cccc5ccccc45)cccc3C(=O)N([C@@H](C)CO)C[C@@H]2C)cc1`, the activity change, negative = inhibition is reported as -8.36% (inactive).
With `COc1ccc(S(=O)(=O)N(C)C[C@@H]2Oc3c(NC(=O)Nc4c(C)noc4C)cccc3C(=O)N([C@@H](C)CO)C[C@H]2C)cc1` the activity change, negative = inhibition was -3.17% (inactive).
In the case of `C[C@@H]1CN([C@@H](C)CO)C(=O)c2cccc(NC(=O)Nc3ccccc3)c2O[C@H]1CN(C)S(=O)(=O)c1ccc(Cl)cc1`, the activity change, negative = inhibition is reported as -5.63% (inactive).
In the case of `COc1ccc(S(=O)(=O)N(C)C[C@@H]2Oc3c(NC(=O)Nc4cccc5ccccc45)cccc3C(=O)N([C@@H](C)CO)C[C@@H]2C)cc1`, the activity change, negative = inhibition is reported as -6.51% (inactive).
For `C[C@@H]1CN([C@@H](C)CO)C(=O)c2cccc(NC(=O)Nc3cccc4ccccc34)c2O[C@H]1CN(C)S(=O)(=O)c1ccc2c(c1)OCC2`, the activity change, negative = inhibition was -32.4% (inactive).
In the case of `C[C@@H]1CN([C@@H](C)CO)C(=O)c2cccc(NC(=O)Nc3cccc4ccccc34)c2O[C@H]1CN(C)S(=O)(=O)c1ccc2c(c1)oc(=O)n2C`, the activity change, negative = inhibition is reported as 4.7% (inactive).
In the case of `COc1ccc(S(=O)(=O)N(C)C[C@@H]2Oc3c(NC(=O)Nc4ccc(F)cc4)cccc3C(=O)N([C@H](C)CO)C[C@H]2C)cc1`, the activity change, negative = inhibition is reported as -19% (inactive).
With `C[C@@H]1CN([C@@H](C)CO)C(=O)c2cccc(NC(=O)Nc3cccc4ccccc34)c2O[C@H]1CN(C)S(=O)(=O)c1cn(C)cn1` the activity change, negative = inhibition was -2.87% (inactive).
With `COc1ccc(S(=O)(=O)N(C)C[C@@H]2Oc3c(NS(C)(=O)=O)cccc3C(=O)N([C@@H](C)CO)C[C@H]2C)cc1` the activity change, negative = inhibition was -7.41% (inactive).

System: INS-1E cytokine-induced nitrite, Griess absorbance, 48 h
Experiment: as above
Conditions: not given
With `C[C@@H]1CN([C@@H](C)CO)C(=O)c2cccc(NC(=O)Nc3cccc4ccccc34)c2O[C@H]1CN(C)S(=O)(=O)c1ccc2c(c1)OCCO2` the AC50 was > 26 µM (inactive).
For `COc1ccc(S(=O)(=O)N(C)C[C@@H]2Oc3c(NC(=O)Nc4ccccc4)cccc3C(=O)N([C@H](C)CO)C[C@H]2C)cc1`, the AC50 was > 26 µM (inactive).
